According to patent publication US20250075278A1, “EPIGENTIC REGULATION AND CO-TARGETING APPROACHES OF PSMA IN PROSTRATE CANCER” (Fred Hutchinson Cancer Center, priority 2023, published 2025):
“Also recorded” adds a separate entry of the source.

Columns and labels:
LuCaP 35CR xenografts = assay: PSMA IHC of LuCaP 35CR PDX tumors grown in treated mice; assay type: in vivo; conditions: LuCaP 35CR PDX in castrated CB17SCID mice, 75 mg/kg/day, 21 days, vs 30% Captisol control
Description: In vivo experiments. All surgical procedures were performed under isoflurane anesthesia. LuCaP 35CR tumors (1 mm3) were surgically implanted s.c. into castrated male CB17SCID mice (The Jackson Laboratory) (59). When tumors reached a volume between 150 mm3 and 200 mm3, mice were administered CUDC-907 (Curis Inc.), a combined pan-HDAC/PI3K inhibitor dissolved in 30% captisol (Thermo Fisher Scientific). Treated mice received 75 mg/kg/day for 5 days, followed by 2 days off treatment, repeated for a total of 21 days or until the diameter of the tumor reached 2 cm. The same volume of 30% captisol, in the same manner as described above, was used to treat the vehicle group. […]
IHC staining. […] Immunocomplexes were detected using PV poly-HRP anti-mouse IgG (Leica Microsystems, PV6114) with DAB as the chromogen. […] Immunocomplexes were detected using the Biotin XX Tyramide SuperBoost kit (Invitrogen, B40931) per manufacturer's protocol with DAB as the chromogen. […] Immunocomplexes were detected using Tyramide Signal Amplification system from Thermo Fisher Scientific. […] Membranous PSMA expression was scored in a blinded manner by 2 pathologists, whereby the optical density level (“0” for no brown color, “1” for faint and fine brown chromogen deposition, and “2” for prominent chromogen deposition) was multiplied by the percentage of cells at each staining level, resulting in a total score range of 0-200. […]

[1] = system: DU145, LAPC4, and LuCaP 35CR CL; assay: PSMA protein expression in cell line models treated with epigenetic modifiers (flow cytometry and fluorescence immunocytochemistry); assay type: cell-based; conditions: for PSMA expression after HDACi treatment: in vitro and in vivo
Description: Cell lines and in vitro experiments. […] All drugs were diluted in DMSO.
To this end, 3 cell line models (DU145, LAPC4, and LuCaP 35CR CL) were treated with the DNMTi decitabine and pan-HDACi (panobinostat, CUDC-907, vorinostat) and applied 2 orthogonal approaches (flow cytometry and fluorescence immunocytochemistry) and 2 separate monoclonal antibodies (3E6 and LNI-17) to measure PSMA protein expression.

Structure (SMILES) | PSMA expression in tumors (IHC, PSMA-positive cells) (LuCaP 35CR xenografts) | PSMA expression after HDACi treatment [1] | PSMA re-expression (density plot, FIG. 5H) ([1]; 10 μM, cell line not stated)
COc1ccc(-c2nc(N3CCOCC3)c3sc(CN(C)c4ncc(C(=O)NO)cn4)cc3n2)cn1 [CUDC-907] | significantly increased PSMA expression; also recorded: enhanced PSMA expression | significant upregulation of PSMA expression | –
O=C(CNc1cccc2c1C(=O)N(C1CCC(=O)NC1=O)C2=O)NCCCOc1ccc(NC(=O)c2ccc(CN(C(=O)c3ccc4c(c3)OCC(=O)N4)C3CC3)cc2)nc1 (stereo not shown) [MS159] | – | – | PSMA re-expression
O=C(CCCCCCC(=O)Nc1ccccc1)NO [vorinostat] | – | significant upregulation of PSMA expression | –
